Where two headings read alike, the source gives them in different places. Values belong to the compound of their own block, whether it stands above or below them.
Columns and labels:
c-Met = c-Met (Homo sapiens, UniProt P08581); experiment: In vitro kinase activity test, c-Met
Method: (§2) Protein kinase with a corresponding enzyme concentration of X (shown in table 1), peptide substrate with a concentration of Y, ATP with a specific concentration, 8 mM MOPS (pH 7.0), and 10 mM MgCl2 were added. The detection plate was P30 filtermat, and the reaction was performed at room temperature for T minutes, and the reaction system was 10 μL.
(§3) The reaction was terminated by adding 0.5% phosphoric acid to the kinase reaction solution, and the plate was read by an Envision instrument.
(§4) The data were converted into phosphorylation rate and inhibition rate, and subjected to parameter curve-fitting (GraphPad Software) to obtain IC50 data of the compounds.

FGFR4(h) = FGFR4(h) (Homo sapiens, UniProt P22455); experiment: In vitro kinase activity test, FGFR4(h)
Method: as §2, §3, §4

FGFR1(h) = FGFR1(h) (Homo sapiens, UniProt P11362); experiment: In vitro kinase activity test, FGFR1(h)
Method: as §2, §3, §4

Abl(h) = Abl(h) (Homo sapiens, UniProt P00519); experiment: In vitro kinase activity test, Abl(h)
Method: as §2, §3, §4

Lck(h) = Lck(h) (Homo sapiens, UniProt P06239); experiment: In vitro kinase activity test, Lck(h)
Method: as §2, §3, §4

Aurora-A(h) = biological target: T1, Aurora-A(h) (Homo sapiens, UniProt O14965); experiment: In vitro kinase activity test, Aurora-A(h)
T1 sequence (O14965 1-403): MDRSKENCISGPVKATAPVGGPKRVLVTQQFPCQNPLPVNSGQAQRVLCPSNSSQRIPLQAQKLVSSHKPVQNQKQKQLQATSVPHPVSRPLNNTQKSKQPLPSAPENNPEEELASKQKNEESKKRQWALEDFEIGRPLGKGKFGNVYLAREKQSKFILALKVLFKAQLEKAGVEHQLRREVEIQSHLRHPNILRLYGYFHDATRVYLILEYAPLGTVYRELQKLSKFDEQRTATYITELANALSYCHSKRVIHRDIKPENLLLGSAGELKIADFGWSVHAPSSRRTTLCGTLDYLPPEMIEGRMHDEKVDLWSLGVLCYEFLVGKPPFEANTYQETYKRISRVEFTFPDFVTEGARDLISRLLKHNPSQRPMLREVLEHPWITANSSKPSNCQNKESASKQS
Method: as §2, §3, §4

FGFR2(h) = FGFR2(h) (Homo sapiens, UniProt P21802); experiment: In vitro kinase activity test, FGFR2(h)
Method: as §2, §3, §4

MINK(h) = MINK(h) (Homo sapiens, UniProt Q8N4C8); experiment: In vitro kinase activity test, MINK(h)
Method: as §2, §3, §4

KDR(h) = KDR(h) (Homo sapiens, UniProt P35968); experiment: In vitro kinase activity test, KDR(h)
Method: as §2, §3, §4

TNIK(h) = TNIK(h) (Homo sapiens, UniProt Q9UKE5); experiment: In vitro kinase activity test, TNIK(h)
Method: as §2, §3, §4

Flt1(h) = Flt1(h) (Homo sapiens, UniProt P17948); experiment: In vitro kinase activity test, Flt1(h)
Method: as §2, §3, §4

Flt4(h) = Flt4(h) (Homo sapiens, UniProt P35916); experiment: In vitro kinase activity test, Flt4(h)
Method: as §2, §3, §4

PDGFRβ(h) = PDGFRβ(h) (Homo sapiens, UniProt P09619); experiment: In vitro kinase activity test, PDGFRβ(h)
Method: as §2, §3, §4

cKit(V560G)(h) = cKit(V560G)(h) (Homo sapiens, UniProt P10721, V560G); experiment: In vitro kinase activity test, cKit(V560G)(h)
Method: as §2, §3, §4

FGFR3(h) = FGFR3(h) (Homo sapiens, UniProt P22607); experiment: In vitro kinase activity test, FGFR3(h)
Method: as §2, §3, §4

cKit(h) = cKit(h) (Homo sapiens, UniProt P10721); experiment: In vitro kinase activity test, cKit(h)
Method: as §2, §3, §4

PDGFRα(h) = PDGFRα(h) (Homo sapiens, UniProt P16234); experiment: In vitro kinase activity test, PDGFRα(h)
Method: as §2, §3, §4

[1] = Pharmacokinetic evaluation in mice, intravenous and oral administration; type: in vivo; settings: male Balb/c nude mice, single
Method: Experimental objective: evaluation of the oral absorption in animals of the product of Embodiment 1 by intravenous and oral administration in mice
Experimental materials: Balb/c nude mice, EDTA-K2
(§1) Experimental procedure: 0.5 mg/mL 5% DMSO/95% (10% HP-β-CD) clear solution of the product of Embodiment 1 was injected intravenously into male Balb/c nude mice (overnight fasting, 7-9 week-age) via caudal vein at a dose of 1 mg/kg. 0.5 mg/mL test compound suspended in 0.5% Methocel/0.2% Tween 80 was administered intragastrically to male Balb/c nude mice (overnight fasting, 7-9 week-age) at a dose of 5 mg/kg. About 30 μL blood was collected from the jugular or caudal vein of each animal in the two groups at 0.25, 0.5, 1.0, 2.0, 4.0, 8.0 and 24 hours after administration, added into anticoagulated tubes containing EDTA-K2, and the mixture was centrifuged to obtain the plasma. LC-MS/MS method was used to determine the drug concentration in blood, and WinNonlin™ Version 6.3 (Pharsight, Mountain View, Calif.) pharmacokinetic software was used to calculate the relevant pharmacokinetic parameters by non-compartment model logarithmic trapezoidal method.

[2] = Pharmacokinetic evaluation in rats, intravenous and oral administration; type: in vivo, SD rats; settings: for Vd / AUC(0-t) / half-life / clearance: rat, plasma, male SD rats, intravenous injection, 1.0 mg/kg, single; for Vd: read-out: apparent volume of distribution at steady state (Vdss); for AUC(0-t): read-out: area under the plasma concentration-time curve (AUC0-last); for half-life: read-out: elimination half-life (T1/2) (converted); for clearance: read-out: plasma clearance (CL)
[3] = as above; type: in vivo, SD rats; settings: for time to peak concentration / AUC(0-t) / bioavailability / Cmax: male SD rats, intragastric, 5 mg/kg, single; for AUC(0-t) / bioavailability / Cmax: rat, plasma, po; for Cmax: read-out: peak concentration (Cmax)
Method: Experimental objective: evaluation of the oral absorption in animals of the product of Embodiment 1 by intravenous and oral administration in rats
Experimental materials: male, SD rats, EDTA-K2
as §1, with “0.5” for “Experimental procedure: 0.5”, “mg/mL” for “mg/mL 5% DMSO/95% (10% HP-β-CD) clear solution”, “the” for “the product of Embodiment 1 was injected intravenously into male Balb/c nude mice (overnight fasting, 7-9 week-age) via caudal vein at a dose of 1 mg/kg. 0.5 mg/mL”, “SD rats” for “Balb/c nude mice”, “7-11” for “7-9”, “8.0,” for “8.0”

[4] = c-Met kinase activity IC50, Table 3, value 45.6 is from the second test (Note 1)
[5] = rats, intravenous administration

Sequence of FGFR1(h) (P11362 22-822): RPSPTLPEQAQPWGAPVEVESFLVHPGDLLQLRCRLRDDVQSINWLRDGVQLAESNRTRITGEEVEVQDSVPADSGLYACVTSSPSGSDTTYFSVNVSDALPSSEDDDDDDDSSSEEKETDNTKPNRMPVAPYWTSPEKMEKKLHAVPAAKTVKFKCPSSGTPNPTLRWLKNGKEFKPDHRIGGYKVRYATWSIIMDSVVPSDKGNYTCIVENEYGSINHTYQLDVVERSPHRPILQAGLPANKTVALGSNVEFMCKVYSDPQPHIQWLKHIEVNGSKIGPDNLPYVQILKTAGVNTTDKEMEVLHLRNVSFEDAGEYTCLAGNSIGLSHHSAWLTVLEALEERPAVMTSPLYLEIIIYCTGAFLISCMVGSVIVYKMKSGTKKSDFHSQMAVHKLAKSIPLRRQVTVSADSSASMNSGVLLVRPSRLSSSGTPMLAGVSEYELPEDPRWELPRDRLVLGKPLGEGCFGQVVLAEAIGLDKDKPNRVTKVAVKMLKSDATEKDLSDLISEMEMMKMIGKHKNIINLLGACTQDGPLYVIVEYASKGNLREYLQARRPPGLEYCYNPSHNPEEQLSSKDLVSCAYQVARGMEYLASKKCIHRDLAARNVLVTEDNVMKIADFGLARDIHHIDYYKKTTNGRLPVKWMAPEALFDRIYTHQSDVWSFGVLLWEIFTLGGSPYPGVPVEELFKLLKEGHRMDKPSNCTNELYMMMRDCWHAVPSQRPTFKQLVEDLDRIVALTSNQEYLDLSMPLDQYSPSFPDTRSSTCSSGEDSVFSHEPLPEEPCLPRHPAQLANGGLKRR
Sequence of TNIK(h) (Q9UKE5 whole entry): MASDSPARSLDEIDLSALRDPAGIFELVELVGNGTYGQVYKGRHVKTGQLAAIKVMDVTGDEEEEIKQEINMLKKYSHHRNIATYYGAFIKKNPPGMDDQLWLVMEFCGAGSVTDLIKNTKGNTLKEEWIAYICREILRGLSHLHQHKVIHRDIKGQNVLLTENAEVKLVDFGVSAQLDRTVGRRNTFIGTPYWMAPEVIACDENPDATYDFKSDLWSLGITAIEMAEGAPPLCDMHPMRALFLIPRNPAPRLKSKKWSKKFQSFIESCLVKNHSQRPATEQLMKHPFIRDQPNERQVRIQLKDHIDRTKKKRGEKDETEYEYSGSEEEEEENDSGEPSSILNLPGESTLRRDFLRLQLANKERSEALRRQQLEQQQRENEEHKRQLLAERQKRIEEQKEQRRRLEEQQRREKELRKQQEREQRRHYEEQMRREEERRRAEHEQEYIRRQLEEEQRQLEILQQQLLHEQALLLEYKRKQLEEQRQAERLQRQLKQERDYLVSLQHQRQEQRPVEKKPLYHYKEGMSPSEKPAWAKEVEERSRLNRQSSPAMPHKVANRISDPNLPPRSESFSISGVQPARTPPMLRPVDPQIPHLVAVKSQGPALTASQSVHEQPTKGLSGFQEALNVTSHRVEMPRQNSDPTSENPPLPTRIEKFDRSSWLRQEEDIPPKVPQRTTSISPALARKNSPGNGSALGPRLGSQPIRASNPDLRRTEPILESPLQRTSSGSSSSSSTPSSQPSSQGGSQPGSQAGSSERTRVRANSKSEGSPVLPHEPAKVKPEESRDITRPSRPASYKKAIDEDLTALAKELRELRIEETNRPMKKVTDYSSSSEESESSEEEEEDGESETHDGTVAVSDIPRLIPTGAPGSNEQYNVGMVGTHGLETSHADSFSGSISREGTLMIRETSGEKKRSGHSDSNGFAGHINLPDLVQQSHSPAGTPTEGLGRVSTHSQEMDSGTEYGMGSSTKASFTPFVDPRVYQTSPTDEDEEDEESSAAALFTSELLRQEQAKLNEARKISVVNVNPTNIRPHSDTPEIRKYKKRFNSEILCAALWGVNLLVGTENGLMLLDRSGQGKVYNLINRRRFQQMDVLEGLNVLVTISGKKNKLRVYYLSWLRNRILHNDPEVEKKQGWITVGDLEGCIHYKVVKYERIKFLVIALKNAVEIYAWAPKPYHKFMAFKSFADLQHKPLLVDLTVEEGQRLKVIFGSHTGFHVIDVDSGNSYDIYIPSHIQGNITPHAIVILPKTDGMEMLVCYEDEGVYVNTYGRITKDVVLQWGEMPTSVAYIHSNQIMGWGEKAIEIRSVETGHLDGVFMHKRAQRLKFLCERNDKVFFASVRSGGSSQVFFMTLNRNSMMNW
Sequence of Flt4(h) (P35916 25-1363): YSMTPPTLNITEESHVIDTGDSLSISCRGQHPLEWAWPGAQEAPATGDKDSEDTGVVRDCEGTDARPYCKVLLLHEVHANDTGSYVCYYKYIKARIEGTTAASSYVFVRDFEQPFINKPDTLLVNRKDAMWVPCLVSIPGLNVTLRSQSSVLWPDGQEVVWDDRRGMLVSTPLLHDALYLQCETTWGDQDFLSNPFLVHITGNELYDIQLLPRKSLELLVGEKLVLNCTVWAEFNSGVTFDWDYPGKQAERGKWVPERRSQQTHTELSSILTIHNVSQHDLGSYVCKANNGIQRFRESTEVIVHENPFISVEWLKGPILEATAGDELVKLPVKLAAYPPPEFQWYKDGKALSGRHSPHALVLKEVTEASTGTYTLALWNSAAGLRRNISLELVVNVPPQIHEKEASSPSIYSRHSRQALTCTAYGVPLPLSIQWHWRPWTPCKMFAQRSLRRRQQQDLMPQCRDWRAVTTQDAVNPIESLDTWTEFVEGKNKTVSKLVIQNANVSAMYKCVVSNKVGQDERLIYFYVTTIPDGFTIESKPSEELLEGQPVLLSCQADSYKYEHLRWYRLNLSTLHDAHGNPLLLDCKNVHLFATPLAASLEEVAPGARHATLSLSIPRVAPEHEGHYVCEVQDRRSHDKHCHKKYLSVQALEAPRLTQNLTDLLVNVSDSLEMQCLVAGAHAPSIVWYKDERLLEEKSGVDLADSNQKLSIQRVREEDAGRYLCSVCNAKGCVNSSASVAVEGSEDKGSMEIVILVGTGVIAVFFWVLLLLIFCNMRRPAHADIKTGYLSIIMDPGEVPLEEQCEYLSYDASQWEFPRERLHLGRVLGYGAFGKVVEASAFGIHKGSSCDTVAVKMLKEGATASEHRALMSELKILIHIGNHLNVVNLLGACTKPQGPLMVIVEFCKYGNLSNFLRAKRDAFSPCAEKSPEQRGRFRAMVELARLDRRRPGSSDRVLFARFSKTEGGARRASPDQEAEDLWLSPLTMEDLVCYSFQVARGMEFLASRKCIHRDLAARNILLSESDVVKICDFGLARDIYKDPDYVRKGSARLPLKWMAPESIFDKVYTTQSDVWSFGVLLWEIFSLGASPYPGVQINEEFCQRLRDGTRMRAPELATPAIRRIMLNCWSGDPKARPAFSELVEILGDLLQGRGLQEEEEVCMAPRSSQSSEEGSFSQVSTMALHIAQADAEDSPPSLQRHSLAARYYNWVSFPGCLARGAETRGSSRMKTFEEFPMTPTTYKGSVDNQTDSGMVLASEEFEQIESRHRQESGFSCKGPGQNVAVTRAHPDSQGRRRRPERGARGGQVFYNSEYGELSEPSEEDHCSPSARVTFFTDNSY
Sequence of Abl(h) (P00519 whole entry): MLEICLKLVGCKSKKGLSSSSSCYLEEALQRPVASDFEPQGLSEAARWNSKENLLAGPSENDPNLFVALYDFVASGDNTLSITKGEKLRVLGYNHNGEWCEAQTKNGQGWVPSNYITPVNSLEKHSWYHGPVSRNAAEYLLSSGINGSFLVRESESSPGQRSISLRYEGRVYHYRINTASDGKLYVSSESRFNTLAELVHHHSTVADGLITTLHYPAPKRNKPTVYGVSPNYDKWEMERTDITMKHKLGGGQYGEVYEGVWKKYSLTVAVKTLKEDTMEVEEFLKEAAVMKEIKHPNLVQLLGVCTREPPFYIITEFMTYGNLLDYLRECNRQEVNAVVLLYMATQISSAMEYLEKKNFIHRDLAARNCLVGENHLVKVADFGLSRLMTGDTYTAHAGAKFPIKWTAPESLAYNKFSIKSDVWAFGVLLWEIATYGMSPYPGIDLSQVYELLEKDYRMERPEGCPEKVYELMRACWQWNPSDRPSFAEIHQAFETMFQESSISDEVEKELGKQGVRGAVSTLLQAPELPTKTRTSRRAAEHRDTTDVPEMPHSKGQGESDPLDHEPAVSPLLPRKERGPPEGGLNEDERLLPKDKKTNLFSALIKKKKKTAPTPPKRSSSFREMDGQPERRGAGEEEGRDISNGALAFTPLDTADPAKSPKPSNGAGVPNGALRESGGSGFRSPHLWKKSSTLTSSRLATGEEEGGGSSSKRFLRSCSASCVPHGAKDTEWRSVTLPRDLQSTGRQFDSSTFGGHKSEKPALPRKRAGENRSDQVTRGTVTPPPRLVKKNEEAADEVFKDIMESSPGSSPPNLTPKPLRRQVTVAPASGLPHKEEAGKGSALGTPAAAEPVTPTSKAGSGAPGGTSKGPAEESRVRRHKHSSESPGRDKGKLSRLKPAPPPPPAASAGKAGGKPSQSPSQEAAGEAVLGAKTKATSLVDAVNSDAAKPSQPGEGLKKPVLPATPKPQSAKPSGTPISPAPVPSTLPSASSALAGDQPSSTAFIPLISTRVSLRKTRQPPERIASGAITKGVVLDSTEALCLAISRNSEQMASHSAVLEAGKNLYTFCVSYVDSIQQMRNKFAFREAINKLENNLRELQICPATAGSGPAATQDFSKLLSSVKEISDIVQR

SMILES: COc1cc2nccc(Oc3ccc(NC(=S)NC4CC4)c(Cl)c3F)c2cc1C(N)=O [Comparative Compound 2]
- IC50 (Lck(h); read-out: Lck(h) IC50, Table 2, ATP 10 μM): 0.252 µM
- IC50 (Aurora-A(h); read-out: Aurora-A(h) IC50, Table 2, ATP 10 μM): 0.262 µM
- IC50 (FGFR2(h)): 0.015 µM
- IC50 (MINK(h); read-out: MINK(h) IC50, Table 2, ATP 10 μM): 0.055 µM
- IC50 (KDR(h); read-out: KDR(h) IC50, Table 2, ATP 10 μM): 0.007 µM
- IC50 (TNIK(h); read-out: TNIK(h) IC50, Table 2, ATP 10 μM): 0.118 µM
- IC50 (Flt1(h); read-out: Flt1(h) IC50, Table 2, ATP 10 μM): 0.031 µM
- IC50 (Flt4(h)): 0.008 µM
- IC50 (FGFR1(h); read-out: FGFR1(h) IC50, Table 2, ATP 5 μM): 0.069 µM
- IC50 (PDGFRβ(h); read-out: PDGFRβ(h) IC50, Table 2, ATP 10 μM): 0.031 µM

SMILES: COc1cc2nccc(Oc3ccc(NC(=O)NC4CC4)c(F)c3F)c2cc1C(N)=O [Comparative Compound 4]
- IC50 (c-Met; [4]): 0.0798 µM
- IC50 (FGFR4(h)): 0.108 µM
- IC50 (FGFR1(h)): 0.031 µM
- IC50 (Abl(h)): 0.292 µM

SMILES: COc1cc2nccc(Oc3ccc(NC(=O)NC4CC4)c(Cl)c3)c2cc1C(N)=O [Comparative Compound 1, Lovatinib]
- IC50 (Lck(h)): 0.069 µM
- IC50 (c-Met; c-Met IC50, Table 2, ATP 10 μM): 0.598 µM
- IC50 (FGFR4(h)): 1.12 µM
- IC50 (FGFR2(h)): 0.014 µM
- Vd [2]: 0.407 L/kg
- AUC(0-t) [2]: 15.1 µM·h
- half-life [2]: 2.53 h
- clearance [2]: 2.6 mL/min/kg
- IC50 (cKit(V560G)(h)): 0.596 µM
- IC50 (MINK(h)): 0.359 µM
- IC50 (FGFR3(h)): 0.132 µM
- IC50 (cKit(h)): 0.078 µM
- IC50 (TNIK(h)): 0.091 µM
- IC50 (Flt1(h)): 0.013 µM
- IC50 (Flt4(h)): 0.003 µM
- IC50 (FGFR1(h)): 0.0766 µM
- IC50 (PDGFRβ(h)): 0.275 µM
- time to peak concentration [3]: 1.25 h
- AUC(0-t) [3]: 44.5 µM·h
- bioavailability [3]: 58.7%
- Cmax [3]: 10.1 µM

SMILES: COc1cc2nccc(Oc3cc(F)c(NC(=O)NC4CC4)cc3F)c2cc1C(N)=O [Comparative Compound 3]
- IC50 (c-Met; [4]): > 10 µM
- IC50 (FGFR4(h)): 0.509 µM
- IC50 (FGFR1(h)): 0.16 µM
- IC50 (Abl(h)): 0.817 µM

Further lines, results first:

- IC50 (c-Met; [4]): 0.032 µM
- IC50 (FGFR4(h)): 0.137 µM
- IC50 (FGFR1(h)): 0.089 µM
- IC50 (Abl(h)): 0.207 µM
SMILES: COc1cc2nccc(Oc3cc(Cl)c(NC(=O)NC4CC4)cc3F)c2cc1C(N)=O [Comparative Compound 5]

- IC50 (c-Met; [4]): 0.282 µM
- IC50 (FGFR4(h)): 4.56 µM
- IC50 (FGFR1(h)): 1.74 µM
- IC50 (Abl(h)): 2.21 µM
SMILES: COc1cc2nccc(Oc3ccc(NC(=O)NC4CC4)c(F)c3)c2cc1C(N)=O [Comparative Compound 6]

- IC50 (Lck(h)): 0.043 µM
- IC50 (c-Met; c-Met IC50, Table 2, ATP 10 μM): 0.0998 µM
- IC50 (c-Met; [4]): 0.0456 µM
- activity on c-Met increased, compared with Comparative Compound 1 (c-Met; from Table 2): 5 times
- IC50 (FGFR4(h)): 0.092 µM
- activity on FGFR4 increased, compared with Comparative Compound 1 (FGFR4(h); from Table 2): 12 times
- IC50 (Aurora-A(h)): 2.08 µM
- IC50 (FGFR2(h)): 0.006 µM
- activity on FGFR2 increased, compared with Comparative Compound 1 (FGFR2(h); from Table 2): 2 times
- IC50 (cKit(V560G)(h)): 0.262 µM
- IC50 (MINK(h)): 0.048 µM
- IC50 (KDR(h)): 0.009 µM
- IC50 (FGFR3(h)): 0.026 µM
- activity on FGFR3 increased, compared with Comparative Compound 1 (FGFR3(h); from Table 2): 5 times
- IC50 (cKit(h)): 0.068 µM
- IC50 (TNIK(h)): 0.014 µM
- activity on TNIK improved, compared with Comparative Compound 2 (TNIK(h); from Table 2): 8 times
- activity on TNIK increased, compared with Comparative Compound 1 (TNIK(h); from Table 2): 6.5 times
- IC50 (Flt1(h)): 0.01 µM
- IC50 (Flt4(h)): 0.003 µM
- IC50 (FGFR1(h)): 0.009 µM
- activity on FGFR1 increased, compared with Comparative Compound 1 (FGFR1(h); from Table 2): 8 times
- IC50 (PDGFRβ(h)): 0.226 µM
- IC50 (Abl(h)): 0.007 µM
- activity on ABL improved, compared with Comparative Compound 2 (Abl(h); from Table 2): ~70 times
- activity on ABL increased, compared with Comparative Compound 1 (Abl(h); from Table 2): 5 times
- IC50 (PDGFRα(h)): 0.12 µM
SMILES: COc1cc2nccc(Oc3ccc(NC(=O)NC4CC4)c(Cl)c3F)c2cc1C(N)=O [Embodiment 1B]

- time to peak concentration ([1]; intragastric, 5 mg/kg): 0.5 h
- bioavailability ([1]; mouse, plasma, po, intragastric, 5 mg/kg): 144%
- AUC(0-t) ([1]; mouse, plasma, po, intragastric, 5 mg/kg, read-out: AUC0-last): 24.9 µM·h
- Cmax ([1]; mouse, plasma, po, intragastric, 5 mg/kg, read-out: peak concentration (Cmax)): 9.83 µM
- Vd ([1]; mouse, plasma, intravenous injection, 1.0 mg/kg, read-out: apparent volume of distribution at steady state (Vdss)): 1.48 L/kg
- AUC(0-t) ([1]; mouse, plasma, intravenous injection, 1.0 mg/kg, read-out: area under the plasma concentration-time curve (AUC0-last)): 3.21 µM·h
- half-life ([1]; mouse, plasma, intravenous injection, 1.0 mg/kg, read-out: elimination half-life (T1/2) (converted)): 2.68 h
- clearance ([1]; mouse, plasma, intravenous injection, 1.0 mg/kg, read-out: plasma clearance (CL)): 11 mL/min/kg
- Vd [2]: 0.259 L/kg
- AUC(0-t) [2]: 23.4 µM·h
- half-life [2]: 2.64 h
- clearance [2]: 1.6 mL/min/kg
- AUC0-last increased, compared with Comparative Compound 1 [2, 5]: 55%
- plasma clearance reduced, compared with Comparative Compound 1 [2, 5]: ~38%
- time to peak concentration [3]: 0.375 h
- AUC(0-t) [3]: 71.1 µM·h
- bioavailability [3]: 60.8%
- Cmax [3]: 19.6 µM
- AUC0-last increased, compared with Comparative Compound 1 ([3]; rats, oral absorption): 27%
SMILES: COc1cc2nccc(Oc3ccc(NC(=O)NC4CC4)c(Cl)c3F)c2cc1C(N)=O [Embodiment 1]

- IC50 (c-Met; [4]): > 10 µM
- IC50 (FGFR4(h)): 1.11 µM
- IC50 (FGFR1(h)): 0.054 µM
SMILES: COc1cc2nccc(Oc3cc(F)c(NC(=O)NC4CC4)c(Cl)c3)c2cc1C(N)=O [Comparative Compound 7]

Reference: US11161817B2, “Quinoline derivative and use thereof as tyrosine kinase inhibitor” (CHONGQING PHARMACEUTICAL INDUSTRIAL RESEARCH INSTITUTE CO. …, priority 2017, dated 2021)
